Reference: patent publication US6030951A, “Chrysomycin derivative compounds and use as antitumor agents” (Mercian Corporation, priority 1996, dated 2000)
Values after ≈ are worked out from the molar mass of the structure shown. Where two headings read alike, the source gives them in different places.

Key:
[1] = system: PC6 (pulmonary cancer cell); test: Inhibition of growth of human cancer cells (WST-1, 3 days); format: cell-based; conditions: 72 h, read-out: IC50 value
Experimental: (§1) Using various human cancer cells, the concentrations of test compounds which inhibits the growth of cancer cells by 50% were determined. Specifically, each of K562 (leukemic cell), HT29 (colic cancer), HT1080 (reticulogranuloma cell), MCF7 (mammary cancer cell), PC6 (pulmonary cancer cell) and MKN28 (gastric cancer cell) was added to a 96-well microtiter/plate at a density of 2-5×10^3 cells per well, and RPM11640 medium (phenol red-free) containing 10% FBS, together with a test compound, was added thereto. Then, this plate was incubated at 37° C. for 3 days in an atmosphere of air containing 5% CO2. Thereafter, 10 μl of WST-1 reagent [0.065% 2-(4-iodophenyl)-3-(4-nitrophenyl)-5-(2,4-disulfonyl)-2H-tetrazolium monosodium salt, 0.007% 1-methoxy-5-methylphenazium methylsulfate] was added to each well, and the plate was further incubated for 3 hours. Then, the absorbance of each well at 450 nm (with a reference wavelength of 650 nm) was measured with a plate reader.

HT29 (colic cancer) = test: as above; format: cell-based; conditions: HT-29, 72 h, read-out: IC50 value
Experimental: as §1

K562 (leukemic cell) = test: as above; format: cell-based; conditions: read-out: IC50 value
Experimental: as §1

[2] = system: MCF7 (mammary cancer cell); test: as above; format: cell-based; conditions: read-out: IC50 value
Experimental: as §1

[3] = system: MKN28 (gastric cancer cell); test: as above; format: cell-based; conditions: MKN-28, 72 h, read-out: IC50 value
Experimental: as §1

solid cancer cells = test: Growth-inhibiting activity against cultured solid cancer cells; format: cell-based, human; conditions: for effectiveness against cells derived from tumors, particularly solid cancers: colic, mammary, pulmonary and gastric cancer, mammals, in particular human
Experimental: as §1

tumor cells = test: Growth-inhibiting activity against various types of tumor cells; format: cell-based, human; conditions: as compared with chrysomycins
Experimental: as §1

[4] = organic solvents such as chloroform, acetone and methanol

Row | Structure (SMILES) | IC50 ([1]; PC6, 3 days, 37° C.) [mg/L] | IC50 (HT29 (colic cancer); HT29, 3 days, 37° C.) [mg/L] | IC50 (K562 (leukemic cell); 72 h, K562, 3 days, 37° C.) [mg/L] | IC50 ([2]; 72 h, MCF7, 3 days, 37° C.) [mg/L] | IC50 ([3]; MKN28, 3 days, 37° C.) [mg/L] | Solubility (Solubility; [4]) | Solubility (Solubility; water) | IC50 [1] [mg/L] | IC50 (HT29 (colic cancer)) [mg/L] | IC50 (K562 (leukemic cell); K562, 72 h) [mg/L] | IC50 ([2]; MCF7, 72 h) [mg/L] | IC50 [3] [mg/L] | growth-inhibiting activity against all types of cultured solid cancers used for testing (solid cancer cells; all types tested) | effectiveness against cells derived from tumors, particularly solid cancers (solid cancer cells) | growth-inhibiting activity against various types of tumor cells (tumor cells)
1 | C=Cc1cc(OC)c2c(c1)c(=O)oc1c2cc(OC)c2c(O)ccc(C3OC(C)C(O)C(C)(O)C3O)c21 (stereo not drawn) [Chrysomycin A, reference compound] |  |  |  |  |  |  |  | 0.335 (≈ 0.659 µM) | 0.84 (≈ 1.65 µM) | 0.106 (≈ 0.208 µM) | 0.53 (≈ 1.04 µM) | 0.144 (≈ 0.283 µM) |  |  | 
2 | COc1cc2c(oc(=O)c3cc(C)cc(OC)c32)c2c(C3OC(C)C(O)C(C)(O)C3O)ccc(O)c12 (stereo not drawn) [Chrysomycin B, reference compound] | 3.5 (≈ 7.05 µM) | 2.63 (≈ 5.3 µM) | 1.76 (≈ 3.54 µM) | 2.58 (≈ 5.2 µM) | 2.65 (≈ 5.34 µM) |  |  |  |  |  |  |  |  |  | 
3 | C=Cc1cc(OC)c2c(c1)c(=O)oc1c2cc(OC)c2c(O)ccc(C3OC(C)C(O)(C(C)=O)C3O)c21 (stereo not drawn) [Mer-1020dD] | 2.5 (≈ 4.94 µM) | 0.15 (≈ 0.296 µM) | 0.21 (≈ 0.415 µM) | 0.6 (≈ 1.18 µM) | 1 (≈ 1.97 µM) | Soluble | insoluble |  |  |  |  |  |  | remarkable effectiveness | 

Further lines, with some results ahead:

Row | IC50 ([1]; PC6, 3 days, 37° C.) [mg/L] | IC50 (HT29 (colic cancer); HT29, 3 days, 37° C.) [mg/L] | IC50 (K562 (leukemic cell); 72 h, K562, 3 days, 37° C.) [mg/L] | IC50 ([2]; 72 h, MCF7, 3 days, 37° C.) [mg/L] | IC50 ([3]; MKN28, 3 days, 37° C.) [mg/L] | Solubility (Solubility; [4]) | Solubility (Solubility; water) | Structure (SMILES) | IC50 [1] [mg/L] | IC50 (HT29 (colic cancer)) [mg/L] | IC50 (K562 (leukemic cell); K562, 72 h) [mg/L] | IC50 ([2]; MCF7, 72 h) [mg/L] | IC50 [3] [mg/L] | growth-inhibiting activity against all types of cultured solid cancers used for testing (solid cancer cells; all types tested) | effectiveness against cells derived from tumors, particularly solid cancers (solid cancer cells) | growth-inhibiting activity against various types of tumor cells (tumor cells)
4 | 0.064 (≈ 0.129 µM) | 0.075 (≈ 0.152 µM) | 0.36 (≈ 0.728 µM) | 0.032 (≈ 0.0647 µM) | 0.017 (≈ 0.0344 µM) | Soluble | insoluble | COc1cc2c(oc(=O)c3cc(C)cc(OC)c32)c2c(C3OC(C)C(O)(C(C)=O)C3O)ccc(O)c12 (stereo not drawn) [Mer-1020dA] |  |  |  |  |  | significantly excellent growth-inhibiting activity | remarkable effectiveness | 
5 | 0.11 (≈ 0.222 µM) | 0.35 (≈ 0.708 µM) | 0.28 (≈ 0.566 µM) | 0.35 (≈ 0.708 µM) | 0.35 (≈ 0.708 µM) | Soluble | insoluble | COc1cc2c(oc(=O)c3cc(C)cc(OC)c32)c2c(C3OC(C)C(=O)C(C)(O)C3O)ccc(O)c12 (stereo not drawn) [Mer-1020dB] |  |  |  |  |  |  | remarkable effectiveness | 
6 | 0.03 (≈ 0.0592 µM) | 0.1 (≈ 0.197 µM) | 0.11 (≈ 0.217 µM) | 0.42 (≈ 0.829 µM) | 0.32 (≈ 0.632 µM) | Soluble | insoluble | C=Cc1cc(OC)c2c(c1)c(=O)oc1c2cc(OC)c2c(O)ccc(C3OC(C)C(=O)C(C)(O)C3O)c21 (stereo not drawn) [Mer-1020dC] |  |  |  |  |  |  | remarkable effectiveness | 
7 | 34 (≈ 101 µM) | 19 (≈ 56.5 µM) | 8.1 (≈ 24.1 µM) | 17 (≈ 50.5 µM) | 11 (≈ 32.7 µM) | Soluble | insoluble | COc1cc2c(oc(=O)c3cc(C)cc(OC)c32)c2cccc(O)c12 [Mer-1020dE] |  |  |  |  |  |  |  | lower as compared with chrysomycins
